The results in this text go back to patent US8785459B2, “Quinazoline compounds as kinase inhibitors” (Development Center for Biotechnology, priority 2011, dated 2014).

Some results are limits rather than exact numbers.

Holding throughout (type): biochemical
In experiment [1] the target is B-Raf (Homo sapiens (Human), UniProt P15056). As to the kind of experiment: Raf kinase assay (B-Raf), [33P] incorporation into MEK1(K97R). As to conditions: for inhibition at 1 µM: 1.0 μM compound, read-out: B-Raf inhibition at 1.0 μM. The procedure: (§1) A. Raf Kinase Assays (B-Raf, B-raf (V600E), and C-Raf)
B-Raf, sequence (P15056 whole entry): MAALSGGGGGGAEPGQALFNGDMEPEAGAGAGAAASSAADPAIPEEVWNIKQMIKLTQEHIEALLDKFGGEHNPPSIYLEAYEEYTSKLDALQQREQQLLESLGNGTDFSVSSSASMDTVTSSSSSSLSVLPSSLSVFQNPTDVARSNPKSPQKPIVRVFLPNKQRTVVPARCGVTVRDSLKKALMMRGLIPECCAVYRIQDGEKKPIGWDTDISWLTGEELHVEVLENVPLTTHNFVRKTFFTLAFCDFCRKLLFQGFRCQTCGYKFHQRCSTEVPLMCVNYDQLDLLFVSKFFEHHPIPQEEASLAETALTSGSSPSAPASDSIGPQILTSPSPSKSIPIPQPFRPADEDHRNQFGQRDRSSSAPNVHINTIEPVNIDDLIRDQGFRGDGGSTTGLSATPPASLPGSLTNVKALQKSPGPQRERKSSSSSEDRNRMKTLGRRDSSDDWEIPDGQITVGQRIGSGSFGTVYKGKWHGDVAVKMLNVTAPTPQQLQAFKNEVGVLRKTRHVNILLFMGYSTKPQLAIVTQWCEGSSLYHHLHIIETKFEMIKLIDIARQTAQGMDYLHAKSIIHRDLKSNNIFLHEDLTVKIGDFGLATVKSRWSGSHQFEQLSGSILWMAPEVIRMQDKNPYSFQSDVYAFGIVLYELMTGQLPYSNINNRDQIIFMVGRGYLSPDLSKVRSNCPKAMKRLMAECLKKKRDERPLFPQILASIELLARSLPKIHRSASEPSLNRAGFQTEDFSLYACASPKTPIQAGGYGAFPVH
(§2) Inhibition of kinase activity by test compound disclosed herein was estimated by quantifying the amount of [^33P] incorporation of substrate in the presence of test compound. Standard assay conditions were 2 ng of recombinant C-Raf or 5 ng of recombinant B-Raf or 5 ng of recombinant B-Raf (V600E) kinase (Upstate Biotechnology) with 500 ng MEK1(K97R) in assay buffer {8 μM ATP, 0.5 μCi [^33P]ATP (specific activity 3000 Ci/mmol, PerkinElmer), 50 mM Tris/HCl (pH7.5), and 1 mM EGTA, 1 mM Na3VO4, 1% 2-mercaptoethanol, 0.1% Brij 35, and 0.2 mg/ml BSA} at a final volume of 25 μL. Reactions were incubated at 30° C. for 30 min and stopped by adding 3% phosphoric acid, harvested onto a 96-well GF/B UniFilter (PerkinElmer) using a unifilter harvester (PerkinElmer), and counted with a TopCount microplate scintillation counter (PerkinElmer). The IC50 values of inhibitors were determined after carrying out assays at 3-fold serially diluted concentrations of each compound in duplication. The results were analyzed using linear regression software (GraphPad Prism 4; GraphPad Software Inc.). Inhibition of B-Raf, B-raf (V600E), and C-Raf kinases by various compounds listed in Table 1 are summarized and shown in Table 3 below. IC50 value is defined as the concentration of the test compound which achieves a half-maximal inhibition of the kinase activity.

Experiment [2] addresses C-Raf (Homo sapiens (Human), UniProt P04049). Nature of the experiment: Raf kinase assay (C-Raf), [33P] incorporation into MEK1(K97R). How it is done:
as §1, §2

The target of experiment [3] is B-Raf (V600E) (Homo sapiens (Human), UniProt P15056, V600E). Nature of the experiment: Raf kinase assay (B-Raf (V600E)), [33P] incorporation into MEK1(K97R). The procedure: as §1, §2
B-Raf (V600E), sequence (P15056 whole entry V600E): as the sequence (P15056 whole entry) above, with V600E counted along it

C-Raf, sequence (P04049 whole entry): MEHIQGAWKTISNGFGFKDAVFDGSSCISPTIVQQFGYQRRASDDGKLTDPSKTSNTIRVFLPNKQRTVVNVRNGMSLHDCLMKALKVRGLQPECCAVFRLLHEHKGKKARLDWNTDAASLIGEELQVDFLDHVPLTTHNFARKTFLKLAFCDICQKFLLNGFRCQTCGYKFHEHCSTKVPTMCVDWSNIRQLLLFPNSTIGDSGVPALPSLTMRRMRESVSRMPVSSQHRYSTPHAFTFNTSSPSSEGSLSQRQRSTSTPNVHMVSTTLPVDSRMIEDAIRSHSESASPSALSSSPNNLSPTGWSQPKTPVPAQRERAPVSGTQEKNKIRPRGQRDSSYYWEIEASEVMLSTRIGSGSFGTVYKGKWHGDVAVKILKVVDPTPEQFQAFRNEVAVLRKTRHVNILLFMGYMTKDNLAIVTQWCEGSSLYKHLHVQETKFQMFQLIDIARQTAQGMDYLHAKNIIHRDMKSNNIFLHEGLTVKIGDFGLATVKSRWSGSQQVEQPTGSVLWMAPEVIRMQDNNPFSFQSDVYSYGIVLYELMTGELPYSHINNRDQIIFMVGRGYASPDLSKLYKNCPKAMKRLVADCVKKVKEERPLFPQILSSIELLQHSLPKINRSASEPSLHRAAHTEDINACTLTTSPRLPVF

As a reminder, the IC50 is the concentration needed to halve the response being measured. In general, inhibition refers to the drop in the measured response relative to a control, in per cent. For the compound `CC(=O)Nc1ccc(-c2ccc3ncnc(Nc4cccc5[nH]ncc45)c3c2)cc1` [Compound 71, N-(4-(4-(1H-indazol-4-ylamino)quinazolin-6-yl)phenyl)acetamide], the IC50 stood at 373 nM in experiment [1], 935 nM in experiment [2] and 393 nM in experiment [3]. Also, in experiment [1], the inhibition at 1 µM stood at 77.2%.

On to `COc1ccc(-c2ccc3nccc(Nc4cccc5[nH]ncc45)c3c2)cc1Cl` [Compound 115, 6-(3-chloro-4-methoxyphenyl)-N-(1H-indazol-4-yl)quinolin-4-amine], for which the IC50 in experiment [1] was 267 nM; in experiment [2], 735 nM; in experiment [3] it was 278 nM. In addition, the inhibition at 1 µM in experiment [1] came out at 76.6%.

As to `COc1cc(-c2ccc3ncnc(Nc4cccc5[nH]nnc45)c3c2)ccc1O` [Compound 82, 4-(4-(1H-benzo[d][1,2,3]triazol-4-ylamino)quinazolin-6-yl)-2-methoxyphenol], the figures for the concentration for half-maximal inhibition (IC50) in experiment [1], in experiment [2] and in experiment [3] were 668 nM, 1270 nM and 702 nM, respectively. For the same compound, the inhibition at 1 µM in experiment [1] came to 58%.

Regarding `COc1cc(-c2ccc3ncnc(Nc4cccc(NC(=O)C(F)(F)F)c4)c3c2)ccc1O` [Compound 45, 2,2,2-trifluoro-N-(3-(6-(4-hydroxy-3-methoxyphenyl)quinazolin-4-ylamino)phenyl)acetamide], the figures for the IC50 in experiment [1], in experiment [2] and in experiment [3] were 382 nM, 835 nM and 358 nM, respectively. In experiment [1], the inhibition at 1 µM was determined as 73.9%.

On to `COc1cc(-c2ccc3ncnc(Nc4c(F)cccc4F)c3c2)ccc1O` [Compound 134, 4-(4-(2,6-difluorophenylamino)quinazolin-6-yl)-2-methoxyphenol], for which the IC50 in experiment [1] was 760 nM; in experiment [2] it was 4420 nM; in experiment [3] it was 706 nM. The inhibition at 1 µM in experiment [1] came to 57.7%.

Take `COc1cc(-c2ccc3ncnc(Nc4cccc5[nH]c(=O)[nH]c45)c3c2)ccc1O` [Compound 127, 4-(6-(4-hydroxy-3-methoxyphenyl)quinazolin-4-ylamino)-1H-benzo[d]imidazol-2(3H)-one]: the IC50 came to 888 nM in experiment [1], 8390 nM in experiment [2] and 1090 nM in experiment [3]. The inhibition at 1 µM in experiment [1] is 53.5%.

Regarding `CS(=O)(=O)Nc1cccc(-c2ccc3ncnc(Nc4cccc5[nH]ncc45)c3c2)c1` [Compound 95, N-(3-(4-(1H-indazol-4-ylamino)quinazolin-6-yl)phenyl)methanesulfonamide], the IC50 in experiment [1] is 430 nM; in experiment [2], 1290 nM; in experiment [3] it was 534 nM. The inhibition at 1 µM in experiment [1] was 70.9%.

As for `COc1cc(-c2ccc3ncnc(Nc4cccc(NC(C)=O)c4)c3c2)ccc1O` [Compound 44, N-(3-(6-(4-hydroxy-3-methoxyphenyl)quinazolin-4-ylamino)phenyl)acetamide], the IC50 in experiment [1] was found to be 489 nM; in experiment [2], 685 nM; in experiment [3] it was 382 nM. Further, in experiment [1], the inhibition at 1 µM amounted to 65.3%.

Consider `CCS(=O)(=O)Nc1cccc(-c2ccc3ncnc(Nc4cccc5[nH]ncc45)c3c2)c1` [Compound 108, N-(3-(4-(1H-indazol-4-ylamino)quinazolin-6-yl)phenyl)ethanesulfonamide], for which the IC50 was 221 nM in experiment [1], 680 nM in experiment [2] and 244 nM in experiment [3]. For the same compound, the inhibition at 1 µM in experiment [1] was 81.1%.

Regarding `c1ccc(-c2ccc3ncnc(Nc4cccc5[nH]ncc45)c3c2)cc1` [Compound 86, N-(1H-indazol-4-yl)-6-phenylquinazolin-4-amine], the figures for the IC50 in experiment [1], in experiment [2] and in experiment [3] were 201 nM, 597 nM and 287 nM, respectively. Moreover, in experiment [1], the inhibition at 1 µM turned out to be 77.8%.

For the compound `CCCS(=O)(=O)Nc1cccc(-c2ccc3nccc(Nc4cccc5[nH]ncc45)c3c2)c1` [Compound 122, N-(3-(4-(1H-indazol-4-ylamino)quinolin-6-yl)phenyl)propane-1-sulfonamide], the IC50 is 259 nM in experiment [1], 439 nM in experiment [2] and 264 nM in experiment [3]. Further, in experiment [1], the inhibition at 1 µM worked out at 77.5%.

As for `COc1cc(-c2ccc3ncnc(Nc4cccc(C(F)(F)F)c4)c3c2)ccc1O` [Compound 18, 2-methoxy-4-(4-(3-(trifluoromethyl)phenylamino)quinazolin-6-yl)phenol], the IC50 in experiment [1] was 3140 nM; in experiment [2], > 10000 nM; in experiment [3], 1170 nM. The inhibition at 1 µM in experiment [1] came out at 48.9%.

For the compound `Nc1ccc(-c2ccc3ncnc(Nc4cccc5[nH]ncc45)c3c2)cc1` [Compound 69, 6-(4-aminophenyl)-N-(1H-indazol-4-yl)quinazolin-4-amine], the IC50 in experiment [1] was 260 nM; in experiment [2], 957 nM; in experiment [3], 342 nM. Further, the inhibition at 1 µM in experiment [1] was found to be 75%.

Take `COc1cc(-c2ccc3ncnc(Nc4cccc(F)c4)c3c2)ccc1O` [Compound 52, 4-(4-(3-fluorophenylamino)quinazolin-6-yl)-2-methoxyphenol]: the IC50 was found to be 560 nM in experiment [1], 1300 nM in experiment [2] and 544 nM in experiment [3]. Moreover, the inhibition at 1 µM in experiment [1] turned out to be 69.2%.

With `COc1cc(-c2ccc3ncnc(Nc4ccc5nc[nH]c5c4)c3c2)ccc1O` [Compound 54, 4-(4-(1H-benzo[d]imidazol-6-ylamino)quinazolin-6-yl)-2-methoxyphenol], the results for the IC50 in experiment [1], in experiment [2] and in experiment [3] were 735 nM, 2570 nM and 633 nM, respectively. Also, the inhibition at 1 µM in experiment [1] came to 56.2%.

Turning to `COc1ccc(-c2ccc3nccc(Nc4cccc5[nH]ncc45)c3c2)cc1F` [Compound 112, 6-(3-fluoro-4-methoxyphenyl)-N-(1H-indazol-4-yl)quinolin-4-amine], the IC50 in experiment [1] stood at 182 nM; in experiment [2], 619 nM; in experiment [3], 207 nM. In addition, the inhibition at 1 µM in experiment [1] came to 80.2%.

For the compound `COc1cc(-c2ccc3ncnc(Nc4cccc([N+](=O)[O-])c4)c3c2)ccc1O` [Compound 36, 2-methoxy-4-(4-(3-nitrophenylamino)quinazolin-6-yl)phenol], the IC50 in experiment [1] was determined as 256 nM; in experiment [2] it was 6990 nM; in experiment [3] it was 675 nM. The inhibition at 1 µM in experiment [1] stood at 76.3%.

Take `NS(=O)(=O)c1ccc(-c2ccc3ncnc(Nc4cccc5[nH]ncc45)c3c2)cc1` [Compound 107, 4-(4-(1H-indazol-4-ylamino)quinazolin-6-yl)benzenesulfonamide]: the IC50 in experiment [1] was determined as 345 nM; in experiment [2], 677 nM; in experiment [3], 328 nM. Moreover, the inhibition at 1 µM in experiment [1] was 75.4%.

For the compound `COc1cccc(-c2ccc3ncnc(Nc4cccc5[nH]ncc45)c3c2)c1OC` [Compound 105, 6-(2,3-dimethoxyphenyl)-N-(1H-indazol-4-yl)quinazolin-4-amine], the IC50 in experiment [1] came out at 380 nM; in experiment [2], 2130 nM; in experiment [3], 515 nM. Also, in experiment [1], the inhibition at 1 µM worked out at 72.6%.

For `CCOc1ccc(-c2ccc3ncnc(Nc4cccc5[nH]ncc45)c3c2)cc1` [Compound 93, 6-(4-ethoxyphenyl)-N-(1H-indazol-4-yl)quinazolin-4-amine], the IC50 was determined as 347 nM in experiment [1], 1560 nM in experiment [2] and 355 nM in experiment [3]. Besides, in experiment [1], the inhibition at 1 µM came out at 76.6%.

With `COc1cc(-c2ccc3ncnc(Nc4ccccc4F)c3c2)ccc1O` [Compound 119, 4-(4-(2-fluorophenylamino)quinazolin-6-yl)-2-methoxyphenol], the figures for the IC50 in experiment [1], in experiment [2] and in experiment [3] were 543 nM, 1440 nM and 633 nM, respectively. Further, the inhibition at 1 µM in experiment [1] came to 67.1%.

With `FC(F)(F)c1cccc(-c2ccc3ncnc(Nc4cccc5[nH]ncc45)c3c2)c1` [Compound 87, N-(1H-indazol-4-yl)-6-(3-(trifluoromethyl)phenyl)quinazolin-4-amine], the IC50 stood at 356 nM in experiment [1], 844 nM in experiment [2] and 371 nM in experiment [3]. Moreover, the inhibition at 1 µM in experiment [1] amounted to 71.3%.

As for `COc1cc(-c2ccc3nccc(Nc4cc(NS(C)(=O)=O)ccc4F)c3c2)ccc1O` [Compound 128, N-(4-fluoro-3-(6-(4-hydroxy-3-methoxyphenyl)quinolin-4-ylamino)phenyl)methanesulfonamide], the IC50 stood at 4130 nM in experiment [1], 12800 nM in experiment [2] and 4280 nM in experiment [3]. Further, the inhibition at 1 µM in experiment [1] stood at 18.5%.

As for `Fc1ccccc1-c1ccc2ncnc(Nc3cccc4[nH]ncc34)c2c1` [Compound 91, 6-(2-fluorophenyl)-N-(1H-indazol-4-yl)quinazolin-4-amine], the values for the IC50 in experiment [1], in experiment [2] and in experiment [3] were 155 nM, 709 nM and 255 nM, respectively. For the same compound, the inhibition at 1 µM in experiment [1] came out at 85.3%.

For the compound `COc1cc(-c2ccc3ncnc(Nc4ccc(Cl)cc4F)c3c2)ccc1O` [Compound 16, 4-(4-(4-chloro-2-fluorophenylamino)quinazolin-6-yl)-2-methoxyphenol], the results for the IC50 in experiment [1], in experiment [2] and in experiment [3] were 817 nM, 1250 nM and 810 nM, respectively. Besides, in experiment [1], the inhibition at 1 µM was 51.5%.
